Data from patent US20250235543A1, “MODIFIED PROTEINS AND PROTEIN DEGRADERS” (Cullgen (Shanghai), Inc., priority 2021, published 2025).
Like-named read-outs stand apart in the source and are kept apart here.

Legend:
CDK4 = target: T1, CDK4 (Homo sapiens, UniProt P11802); assay: CDK4 percentage degradation in Calu-1 cells (immunoblotting); type: cell-based; details: for inhibition at 0.2 µM: read-out: CDK4 Degradation (200 nM); for inhibition at 10 µM: read-out: CDK4 Degradation (10 μM)
T1 construct: endogenous in cells; host or cells: Calu-1
Method in brief: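 CDK4 degradation was measured by immunoblotting. Cells were washed in cold PBS and lysed in RIPA buffer with inhibitors for 30 min at 4° C., then spun at 13,000 rpm to clear. After BCA protein determination, lysates were heated at 99° C. for 5 min in Laemmli buffer, resolved on SDS-PAGE, imaged on a ChemiDoc MP with ECL substrate, and band intensities quantified.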

cyclin D1 = assay: Cyclin D1 percentage degradation in Calu-1 cells (immunoblotting); type: cell-based; details: 16 hours
Method in brief: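 Cyclin D1 degradation was assessed by western blot. Clarified lysates, obtained by RIPA lysis with inhibitors and centrifugation at 13,000 rpm, were normalized by BCA protein assay and separated by SDS-PAGE. Bands were detected with Western ECL Substrate on a Bio-Rad ChemiDoc MP Imaging system and quantified in Image Lab software to derive percentage degradation.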

T1 sequence (P11802 2-303 limits assumed): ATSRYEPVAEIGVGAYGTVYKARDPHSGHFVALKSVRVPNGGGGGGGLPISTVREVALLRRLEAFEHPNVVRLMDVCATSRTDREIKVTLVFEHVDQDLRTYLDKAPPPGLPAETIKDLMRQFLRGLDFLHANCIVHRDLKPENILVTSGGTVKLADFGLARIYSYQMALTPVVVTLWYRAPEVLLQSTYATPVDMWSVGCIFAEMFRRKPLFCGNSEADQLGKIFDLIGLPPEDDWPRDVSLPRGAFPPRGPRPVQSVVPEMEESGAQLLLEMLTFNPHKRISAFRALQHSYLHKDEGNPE
T1 sequence (P24385 whole entry partner): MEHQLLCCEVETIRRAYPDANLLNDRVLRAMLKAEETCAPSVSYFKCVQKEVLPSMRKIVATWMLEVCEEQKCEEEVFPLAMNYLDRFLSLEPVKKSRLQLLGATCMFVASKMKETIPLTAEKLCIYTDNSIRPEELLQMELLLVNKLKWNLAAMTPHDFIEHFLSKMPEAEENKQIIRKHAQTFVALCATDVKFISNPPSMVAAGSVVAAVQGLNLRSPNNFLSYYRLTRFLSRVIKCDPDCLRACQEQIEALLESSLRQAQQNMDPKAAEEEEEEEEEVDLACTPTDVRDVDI
T1 sequence (Q16531 2-1140 limits assumed, further chain): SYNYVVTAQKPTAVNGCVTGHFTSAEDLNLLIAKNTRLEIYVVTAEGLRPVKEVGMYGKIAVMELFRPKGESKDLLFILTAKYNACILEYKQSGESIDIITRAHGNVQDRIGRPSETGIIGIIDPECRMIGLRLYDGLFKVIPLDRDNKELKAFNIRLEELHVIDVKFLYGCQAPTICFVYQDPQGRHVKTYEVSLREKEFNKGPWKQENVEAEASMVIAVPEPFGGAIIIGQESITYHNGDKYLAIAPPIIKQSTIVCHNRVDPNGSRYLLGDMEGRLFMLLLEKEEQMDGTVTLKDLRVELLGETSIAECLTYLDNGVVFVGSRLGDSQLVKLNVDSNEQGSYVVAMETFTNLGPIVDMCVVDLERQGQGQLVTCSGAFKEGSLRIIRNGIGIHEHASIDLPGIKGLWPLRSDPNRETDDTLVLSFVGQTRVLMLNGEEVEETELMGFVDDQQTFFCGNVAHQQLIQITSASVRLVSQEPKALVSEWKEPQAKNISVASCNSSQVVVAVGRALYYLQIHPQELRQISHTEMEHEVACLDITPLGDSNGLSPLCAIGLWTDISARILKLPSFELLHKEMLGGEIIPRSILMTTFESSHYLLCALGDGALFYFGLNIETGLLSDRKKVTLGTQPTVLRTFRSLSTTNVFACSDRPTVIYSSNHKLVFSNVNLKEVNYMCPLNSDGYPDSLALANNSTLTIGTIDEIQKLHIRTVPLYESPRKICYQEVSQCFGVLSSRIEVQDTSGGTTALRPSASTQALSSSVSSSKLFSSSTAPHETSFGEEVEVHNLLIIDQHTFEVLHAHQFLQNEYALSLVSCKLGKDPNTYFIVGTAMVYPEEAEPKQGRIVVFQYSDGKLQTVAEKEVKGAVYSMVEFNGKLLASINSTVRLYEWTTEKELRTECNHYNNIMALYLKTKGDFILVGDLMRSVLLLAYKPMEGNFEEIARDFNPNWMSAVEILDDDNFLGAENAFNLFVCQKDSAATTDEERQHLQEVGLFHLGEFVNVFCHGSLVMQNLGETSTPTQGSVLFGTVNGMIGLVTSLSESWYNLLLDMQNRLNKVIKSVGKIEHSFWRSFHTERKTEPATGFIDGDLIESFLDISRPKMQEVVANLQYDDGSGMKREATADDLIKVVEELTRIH

Row | Structure (SMILES) | inhibition at 0.2 µM (CDK4; Calu-1 cells, 200 nM, 16 hours) | inhibition at 10 µM (CDK4; Calu-1 cells, 16 hours) | CyclinD1 Degradation (200 nM) (cyclin D1) | CyclinD1 Degradation (10 μM) (cyclin D1) | inhibition at 0.2 µM (CDK4; Calu-1, 16 h)
1 | CC(=O)c1c(C)c2cnc(Nc3ccc(N4CCN(CC(=O)NCCOCCOCCC(=O)Nc5cccc(C)c5C(=O)Nc5nc(C)c(C)s5)CC4)cn3)nc2n(C2CCCC2)c1=O [CPD-139, 2-(3-(2-(2-(2-(4-(6-((6-Acetyl-8-cyclopentyl-5-methyl-7-oxo-7,8-dihydropyrido[2,3-d]pyrimidin-2-yl)amino)pyridin-3-yl)piperazin-1-yl)acetamido)ethoxy)ethoxy)propanamido)-N-(4,5-dimethylthiazol-2-yl)-6-methylbenzamide] | < 30% | – | D (protein percentage degradation <30%) | – | –
2 | CC(=O)c1c(C)c2cnc(Nc3ccc(N4CCN(CC(=O)NCCCCNc5cccc(C(=O)Nc6nc(C)c(C)s6)c5C)CC4)cn3)nc2n(C2CCCC2)c1=O [CPD-099, 3-((4-(2-(4-(6-((6-Acetyl-8-cyclopentyl-5-methyl-7-oxo-7,8-dihydropyrido[2,3-d]pyrimidin-2-yl)amino)pyridin-3-yl)piperazin-1-yl)acetamido)butyl)amino)-N-(4,5-dimethylthiazol-2-yl)-2-methylbenzamide] | < 30% | – | D (protein percentage degradation <30%) | – | –
3 | CC(=O)c1c(C)c2cnc(Nc3ccc(N4CCN(CCNCCCCCCCNc5cccc(C(=O)Nc6nc(C)c(C)s6)c5C)CC4)cn3)nc2n(C2CCCC2)c1=O [CPD-188, 3-((7-((2-(4-(6-((6-Acetyl-8-cyclopentyl-5-methyl-7-oxo-7,8-dihydropyrido[2,3-d]pyrimidin-2-yl)amino)pyridin-3-yl)piperazin-1-yl)ethyl)amino)heptyl)amino)-N-(4,5-dimethylthiazol-2-yl)-2-methylbenzamide] | – | – | D (protein percentage degradation <30%) | – | < 30%
4 | CC(=O)c1nc(NC(=O)c2ccc(NCCOCCOCCOCCOCCOCCNC(=O)CN3CCN(c4ccc(Nc5ncc6c(C)c(C(C)=O)c(=O)n(C7CCCC7)c6n5)nc4)CC3)cc2C)sc1C [CPD-045, N-(4-Acetyl-5-methylthiazol-2-yl)-4-((1-(4-(6-((6-acetyl-8-cyclopentyl-5-methyl-7-oxo-7,8-dihydropyrido[2,3-d]pyrimidin-2-yl)amino)pyridin-3-yl)piperazin-1-yl)-2-oxo-6,9,12,15,18-pentaoxa-3-azaicosan-20-yl)amino)-2-methylbenzamide] | 50 to 80% | – | A (protein percentage degradation >=80%) | – | –
5 | CC(=O)c1c(C)c2cnc(Nc3ccc(N4CCN(C(=O)CCOCCOCCC(=O)Nc5ccccc5C(=O)Nc5nc(C)c(C)s5)CC4)cn3)nc2n(C2CCCC2)c1=O [CPD-128, 2-(3-(2-(3-(4-(6-((6-Acetyl-8-cyclopentyl-5-methyl-7-oxo-7,8-dihydropyrido[2,3-d]pyrimidin-2-yl)amino)pyridin-3-yl)piperazin-1-yl)-3-oxopropoxy)ethoxy)propanamido)-N-(4,5-dimethylthiazol-2-yl)benzamide] | – | – | C (protein percentage degradation <50%, and >=30%) | – | 50 to 80%
6 | CC(=O)c1c(C)c2cnc(Nc3ccc(N4CCN(CC(=O)NCCOCCOCCOCCNC(=O)CNc5ccc(C(=O)Nc6ncc(C)s6)c(C)c5)CC4)cn3)nc2n(C2CCCC2)c1=O [CPD-018, 4-((17-(4-(6-((6-Acetyl-8-cyclopentyl-5-methyl-7-oxo-7,8-dihydropyrido[2,3-d]pyrimidin-2-yl)amino)pyridin-3-yl)piperazin-1-yl)-2,16-dioxo-6,9,12-trioxa-3,15-diazaheptadecyl)amino)-2-methyl-N-(5-methylthiazol-2-yl)benzamide] | 30 to 50% | – | C (protein percentage degradation <50%, and >=30%) | – | –
7 | CC(=O)c1c(C)c2cnc(Nc3ccc(N4CCN(CC(=O)NCCCCCCCCCNC(=O)CNc5ccc(C(=O)Nc6ncc(C)s6)c(C)c5)CC4)cn3)nc2n(C2CCCC2)c1=O [CPD-035] | 30 to 50% | – | C (protein percentage degradation <50%, and >=30%) | – | –
8 | CC(=O)c1c(C)c2cnc(Nc3ccc(N4CCN(C(=O)CCOCCOCCOCCOCCOCCNc5cccc(C(=O)Nc6nc(C)c(C)s6)c5C)CC4)cn3)nc2n(C2CCCC2)c1=O [CPD-126, 3-((18-(4-(6-((6-Acetyl-8-cyclopentyl-5-methyl-7-oxo-7,8-dihydropyrido[2,3-d]pyrimidin-2-yl)amino)pyridin-3-yl)piperazin-1-yl)-18-oxo-3,6,9,12,15-pentaoxaoctadecyl)amino)-N-(4,5-dimethylthiazol-2-yl)-2-methylbenzamide] | – | – | B (protein percentage degradation <80%, and >=50%) | – | 50 to 80%
9 | CC(=O)c1c(C)c2cnc(Nc3ccc(N4CCN(CC(=O)NCCOCCOCCOCCOCCOCCNC(=O)COc5ccc(C(=O)Nc6ncc(C)s6)c(C)c5)CC4)cn3)nc2n(C2CCCC2)c1=O [CPD-019, 4-((23-(4-(6-((6-Acetyl-8-cyclopentyl-5-methyl-7-oxo-7,8-dihydropyrido[2,3-d]pyrimidin-2-yl)amino)pyridin-3-yl)piperazin-1-yl)-2,22-dioxo-6,9,12,15,18-pentaoxa-3,21-diazatricosyl)oxy)-2-methyl-N-(5-methylthiazol-2-yl)benzamide] | < 30% | – | D (protein percentage degradation <30%) | – | –
10 | CC(=O)c1c(C)c2cnc(Nc3ccc(N4CCN(CC(=O)NCCOCCOCCC(=O)Nc5ccccc5C(=O)Nc5ccc(Cl)cn5)CC4)cn3)nc2n(C2CCCC2)c1=O [CPD-082, 2-(3-(2-(2-(2-(4-(6-((6-Acetyl-8-cyclopentyl-5-methyl-7-oxo-7,8-dihydropyrido[2,3-d]pyrimidin-2-yl)amino)pyridin-3-yl)piperazin-1-yl)acetamido)ethoxy)ethoxy)propanamido)-N-(5-chloropyridin-2-yl)benzamide] | > 80% | – | A (protein percentage degradation >=80%) | – | –

More lines, main results first:

Row | inhibition at 0.2 µM (CDK4; Calu-1 cells, 200 nM, 16 hours) | inhibition at 10 µM (CDK4; Calu-1 cells, 16 hours) | Structure (SMILES) | CyclinD1 Degradation (200 nM) (cyclin D1) | CyclinD1 Degradation (10 μM) (cyclin D1) | inhibition at 0.2 µM (CDK4; Calu-1, 16 h)
11 | < 30% | – | COc1ccc(NC(=O)c2ccccc2NC(=O)CCOCCN2CCC(NC(=O)CN3CCN(c4ccc(Nc5ncc6c(C)c(C(C)=O)c(=O)n(C7CCCC7)c6n5)nc4)CC3)CC2)nn1 [CPD-348, 2-(3-(2-(4-(2-(4-(6-((6-Acetyl-8-cyclopentyl-5-methyl-7-oxo-7,8-dihydropyrido[2,3-d]pyrimidin-2-yl)amino)pyridin-3-yl)piperazin-1-yl)acetamido)piperidin-1-yl)ethoxy)propanamido)-N-(6-methoxypyridazin-3-yl)benzamide] | D (protein percentage degradation <30%) | – | –
12 | – | 50 to 80% | Cc1nc(NC(=O)c2ccccc2NC(=O)CCCCCCCNC(=O)CN2CCN(c3ccc(Nc4ncc5cc6n(c5n4)C4(CCCCC4)CNC6=O)nc3)CC2)sc1C [CPD-320, N-(4,5-Dimethylthiazol-2-yl)-2-(8-(2-(4-(6-((6′-oxo-7′,8′-dihydro-6′H-spiro[cyclohexane-1,9′-pyrazino[1′,2′:1,5]pyrrolo[2,3-d]pyrimidin]-2′-yl)amino)pyridin-3-yl)piperazin-1-yl)acetamido)octanamido)benzamide] | – | A (protein percentage degradation >= 80%) | –
13 | – | < 30% | Cc1nc(NC(=O)c2ccccc2NC(=O)CCOCCOCCOCCOCCOCCOCCNC(=O)CN2CCN(Cc3ccc(Nc4ncc(F)c(-c5cc(F)c6nc(C)n(C(C)C)c6c5)n4)nc3)CC2)sc1C [CPD-285, N-(4,5-Dimethylthiazol-2-yl)-2-(1-(4-((6-((5-fluoro-4-(4-fluoro-1-isopropyl-2-methyl-1H-benzo[d]imidazol-6-yl)pyrimidin-2-yl)amino)pyridin-3-yl)methyl)piperazin-1-yl)-2-oxo-6,9,12,15,18,21-hexaoxa-3-azatetracosan-24-amido)benzamide] | – | D (protein percentage degradation < 30%) | –
14 | < 30% | – | CC(=O)c1c(C)c2cnc(Nc3ccc(N4CCN(CC(=O)NCCOCCOCCC(=O)Nc5ccccc5CNc5nc(C)c(C)s5)CC4)cn3)nc2n(C2CCCC2)c1=O [CPD-154, 3-(2-(2-(2-(4-(6-((6-Acetyl-8-cyclopentyl-5-methyl-7-oxo-7,8-dihydropyrido[2,3-d]pyrimidin-2-yl)amino)pyridin-3-yl)piperazin-1-yl)acetamido)ethoxy)ethoxy)-N-(2-(((4,5-dimethylthiazol-2-yl)amino)methyl)phenyl)propanamide] | D (protein percentage degradation <30%) | – | –
15 | > 80% | – | CC(=O)c1c(C)c2cnc(Nc3ccc(N4CCN(CC(=O)NCCOCCOCCC(=O)Nc5ccccc5C(=O)Nc5ccc(N(C)C)nn5)CC4)cn3)nc2n(C2CCCC2)c1=O [CPD-185, 2-(3-(2-(2-(2-(4-(6-((6-Acetyl-8-cyclopentyl-5-methyl-7-oxo-7,8-dihydropyrido[2,3-d]pyrimidin-2-yl)amino)pyridin-3-yl)piperazin-1-yl)acetamido)ethoxy)ethoxy)propanamido)-N-(6-(dimethylamino)pyridazin-3-yl)benzamide] | A (protein percentage degradation >=80%) | – | –
16 | – | 50 to 80% | Cc1nc(NC(=O)c2ccccc2NC(=O)CNC(=O)CN2CCN(c3ccc(Nc4ncc5cc(C(=O)N(C)C)n(C6CCCC6)c5n4)nc3)CC2)sc1C [CPD-286, 7-Cyclopentyl-2-((5-(4-(2-((2-((2-((4,5-dimethylthiazol-2-yl)carbamoyl)phenyl)amino)-2-oxoethyl)amino)-2-oxoethyl)piperazin-1-yl)pyridin-2-yl)amino)-N,N-dimethyl-7H-pyrrolo[2,3-d]pyrimidine-6-carboxamide] | – | A (protein percentage degradation >= 80%) | –
